This experiment concerns the target IRAK4 (Homo sapiens (Human), UniProt Q9NWZ3). Nature of the experiment: IRAK4 Inhibition Assay. It counts as biochemical. Particulars: ATP 500 μM; FL-peptide 1.5 μM; IRAK4 0.6 nM; 60 min room temperature; Caliper LABCHIP 3000. As to the method:
The assays were performed in U-bottom 384-well plates. The final assay volume was 30 μL prepared from 15 μL additions of enzyme and substrates (fluoresceinated peptide and ATP) and test compounds in assay buffer (20 mM HEPES pH 7.2, 10 mM MgCl2, 0.015% Brij 35 and 4 mM DTT). The reaction was initiated by the combination of IRAK4 with substrates and test compounds. The reaction mixture was incubated at room temperature for 60 min. and terminated by adding 45 μL of 35 mM EDTA to each sample. The reaction mixture was analyzed on the Caliper LABCHIP® 3000 (Caliper, Hopkinton, MA) by electrophoretic separation of the fluorescent substrate and phosphorylated product. Inhibition data were calculated by comparison to no enzyme control reactions for 100% inhibition and vehicle-only reactions for 0% inhibition. The final concentrations of reagents in the assays are ATP, 500 μM; FL-IPTSPITTTYFFFKKK peptide 1.5 μM; IRAK4, 0.6 nM; and DMSO, 1.6%.
Sequence of IRAK4 (Q9NWZ3 whole entry): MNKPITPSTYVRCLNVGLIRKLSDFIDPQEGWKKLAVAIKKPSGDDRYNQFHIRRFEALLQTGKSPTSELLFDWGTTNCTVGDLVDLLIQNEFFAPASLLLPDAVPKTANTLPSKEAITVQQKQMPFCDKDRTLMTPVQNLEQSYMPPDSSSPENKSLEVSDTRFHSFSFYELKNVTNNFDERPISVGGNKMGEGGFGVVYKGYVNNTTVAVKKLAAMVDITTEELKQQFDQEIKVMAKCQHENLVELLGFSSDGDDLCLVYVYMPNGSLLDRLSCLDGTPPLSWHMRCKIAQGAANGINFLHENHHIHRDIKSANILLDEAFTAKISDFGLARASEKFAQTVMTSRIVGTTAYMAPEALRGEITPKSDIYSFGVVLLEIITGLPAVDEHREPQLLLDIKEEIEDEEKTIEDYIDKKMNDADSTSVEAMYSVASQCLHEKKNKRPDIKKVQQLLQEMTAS
For the compound `CC(C)n1nc(NCC2CCNCC2)c2cnn3cc(-c4cccnc4)cc3c21` [Example 1, 1-isopropyl-N-(piperidin-4-ylmethyl)-8-(pyridin-3-yl)-1H-pyrazolo[3,4-d]pyrrolo[1,2-b] pyridazin-3-amine], the concentration for half-maximal inhibition (IC50) worked out at 896 nM.

Turning to `COC(=O)N1CCC(CNc2nn(C(C)C)c3c2cnn2cc(-c4cccnc4)cc32)CC1` [Example 2, methyl 4-(((1-isopropyl-8-(pyridin-3-yl)-1H-pyrazolo[3,4-d]pyrrolo[1,2-b]pyridazin-3-yl)amino)methyl)piperidine-1-carboxylate], the IC50 was 1000 nM. As to `CC(C)n1nc(NCC2CCNCC2)c2cnn3cc(-c4ccncc4)cc3c21` [Example 3, 1-isopropyl-N-(piperidin-4-ylmethyl)-8-(pyridin-4-yl)-1H-pyrazolo[3,4-d] pyrrolo[1,2-b]pyridazin-3-amine], the concentration for half-maximal inhibition (IC50) is 211 nM. In the case of `COC(=O)N1CCC(CNc2nn(C(C)C)c3c2cnn2cc(-c4ccncc4)cc32)CC1` [Example 4, methyl 4-(((1-isopropyl-8-(pyridin-4-yl)-1H-pyrazolo[3,4-d]pyrrolo[1,2-b]pyridazin-3-yl)amino)methyl)piperidine-1-carboxylate], the IC50 came to 232 nM. With `CC(C)n1nc(NCC2CCN(C)CC2)c2cnn3cc(-c4ccncc4)cc3c21` [Example 5, 1-isopropyl-N-((1-methylpiperidin-4-yl)methyl)-8-(pyridin-4-yl)-1H-pyrazolo[3,4-d] pyrrolo[1,2-b]pyridazin-3-amine], the IC50 was found to be 143 nM.

For the compound `COC(=O)NC1CCC(Nc2nn(C(C)C)c3c2cnn2cc(-c4cccnc4)cc32)CC1` (stereo not drawn) [Example 6, methyl (4-((1-isopropyl-8-(pyridin-3-yl)-1H-pyrazolo[3,4-d]pyrrolo[1,2-b]pyridazin-3-yl)amino)cyclohexyl)carbamate], the IC50 is 696 nM. For `COC(=O)NC1CCC(Nc2nn(C(C)C)c3c2cnn2cc(-c4ccncc4)cc32)CC1` (stereo not drawn) [Example 7, methyl (4-((1-isopropyl-8-(pyridin-4-yl)-1H-pyrazolo[3,4-d]pyrrolo[1,2-b]pyridazin-3-yl)amino)cyclohexyl)carbamate], the IC50 was found to be 182 nM. For the compound `CC(=O)N1CCC(Nc2nn(C(C)C)c3c2cnn2cc(-c4ccncc4)cc32)CC1` [Example 8, 1-(4-((1-isopropyl-8-(pyridin-4-yl)-1H-pyrazolo[3,4-d]pyrrolo[1,2-b]pyridazin-3-yl)amino)piperidin-1-yl)ethan-1-one], the IC50 stood at 139 nM.

As for `CC(C)n1nc(NC2CCNCC2)c2cnn3cc(-c4ccncc4)cc3c21` [Example 9, 1-isopropyl-N-(piperidin-4-yl)-8-(pyridin-4-yl)-1H-pyrazolo[3,4-d]pyrrolo[1,2-b] pyridazin-3-amine], the IC50 was determined as 756 nM.

For orientation: IC50 means the concentration that gives 50% inhibition.

The values above are taken from patent US12304914B2, “Pyrazolo[3,4-d]pyrrolo[1,2-b]pyridazinyl compounds useful as IRAK4 inhibitors” (BRISTOL-MYERS SQUIBB COMPANY, priority 2019, dated 2025).
